The experiment has as its system hair bulb root cells (keratinocytes). Kind of experiment: In vitro test: cellular proliferation of root cells (keratinocytes) in cultured human scalp fragments, anti-Ki67 immunohistochemistry. Format: cell-based. Particulars: cultures stopped on D4, 1.7 μg/ml of miliacin, Ki67-positive cells. As for the experimental part:
This test consists of studying the cellular proliferation of root cells (keratinocytes). Indeed, as mentioned above, cellular proliferation at the hair bulb matrix promotes hair growth.
Composition A: 1.7 μg/ml of miliacin
Composition B: 150 μg/ml of the composition disclosed herein, Keranat, comprising: • 1.7 μg/ml of miliacin (1.1% of mixture) • 0.30 μg/ml of glycosylceramides and ceramides (0.21% of mixture) • 1.2 μg/ml of phospholipids (0.8% of mixture) Methodology
Human scalp fragments were obtained in plastic surgery from twelve different donors from the occipital area prior to hair implantation. They were deposited in inserts, in turn placed in culture wells. Culture medium specifically suitable for maintaining survival conditions (antibiotic, foetal calf serum (FCS)) was added to the bottom of the wells, running a passage by slow diffusion between the two compartments via a 3 μm thick porous membrane.
The composition is added in dilution at a predetermined dose, in the culture medium to promote contact with the hair bulbs. […]
The root proliferation was analysed by means of immunohistochemistry using an anti-Ki67 antibody marker of phase M, S, G1 and G2 cells in the cell cycle (mouse monoclonal antibody, MIB1 clone, diluted to 1:300, marketed by Dako). […]
On each bulb, the number of positive cells is counted with respect to a total of approximately 100 cells. […]

Regarding miliacin [Composition A], the “Results (% of proliferating cells compared to control)” value is listed as “+92%”. In addition, the “Results (% of proliferating cells compared to control)” value (listed as millet oil alone) is recorded as 92%.

(Values after patent US9180135B2, “Miliacin and sphingolipids and/or phospholipids composition for hair and scalp care” (HITEX, priority 2013, dated 2015).)
